# Values of other authors in PubChem BioAssay AID1259409 (Chemical Carcinogenesis Research Information System (CCRIS), 2018).
# System: rodent chemically induced tumor inhibition, incidence and multiplicity
# Assay: CCRIS tumor inhibitor studies
smiles,measurement,setting,value
CC1=C(/C=C/C(C)=C/C=C/C(C)=C/C=C/C=C(C)/C=C/C=C(C)/C=C/C2=C(C)CCCC2(C)C)C(C)(C)CCC1,"tumour outcome (control, treated, inhibition, significance)","Carcinogen: 1,2-DIMETHYLHYDRAZINE, 540-73-8, Dose [Inhibitor]: 0, 0.005% IN DIET FOR 14 WK BEGINNING 3 D PRIOR TO CARCINOGEN TREATMENT (STUDY DURATION: 26 WK), Route [Inhibitor]: ORAL, Species: RAT, Strain/Sex: SPRAGUE-DAWLEY/MALE, Target Tissue: Type of Lesion: INTESTINE: CARCINOMA, Dose [Carcinogen]: 20 MG/KG BW 1/WK FOR 12 WK, Promoter: NONE USED","23/28 (82%), 11/20 (55%), 33%, p<0.05"
same,"tumour outcome (control, treated, inhibition, significance)","Carcinogen: 4-(METHYLNITROSAMINO)-1-(3-PYRIDYL)-1-BUTANONE [64091-50-5], Dose [Inhibitor]: 16 MG/KG SC 2X/WK FOR 16 WK BEGINNING 1 WK PRIOR TO FIRST CARCINOGEN DOSE (STUDY DURATION: 16 WK), Route [Inhibitor]: SUBCUTANEOUS, Species: MOUSE, Strain/Sex: A/J/FEMALE, Target Tissue: Type of Lesion: LUNG: ADENOMA OR ADENOCARCINOMA, Dose [Carcinogen]: 10 UMOL ONCE 1 WK POST FIRST INHIBITOR DOSE (STUDY DURATION: 16 WK), Promoter: NONE","100%, 100%, 0%, not significant"
same,"tumour outcome (control, treated, inhibition, significance)","Carcinogen: 4-(METHYLNITROSAMINO)-1-(3-PYRIDYL)-1-BUTANONE [64091-50-5], Dose [Inhibitor]: 32 MG/KG SC 2X/WK FOR 17 WK BEGINNING 1 WK PRIOR TO FIRST CARCINOGEN DOSE (STUDY DURATION: 17 WK), Route [Inhibitor]: SUBCUTANEOUS, Species: MOUSE, Strain/Sex: A/J/FEMALE, Target Tissue: Type of Lesion: LUNG: ADENOMA, Dose [Carcinogen]: 10 UMOL ONCE 1 WK POST FIRST INHIBITOR DOSE (STUDY DURATION: 17 WK), Promoter: NONE","100%, 100%, 0%, not significant"
same,"tumour outcome (control, treated, inhibition, significance)","Carcinogen: 4-(METHYLNITROSAMINO)-1-(3-PYRIDYL)-1-BUTANONE [64091-50-5], Dose [Inhibitor]: 32 MG/KG SC 2X/WK FOR 53 WK BEGINNING 1 WK PRIOR TO FIRST CARCINOGEN DOSE (STUDY DURATION: 53 WK), Route [Inhibitor]: SUBCUTANEOUS, Species: MOUSE, Strain/Sex: A/J/FEMALE, Target Tissue: Type of Lesion: LUNG: ADENOMA OR ADENOCARCINOMA, Dose [Carcinogen]: 10 UMOL ONCE 1 WK POST FIRST INHIBITOR DOSE (STUDY DURATION: 53 WK), Promoter: NONE","100%, 100%, 0%, not significant"
same,"tumour outcome (control, treated, inhibition, significance)","Carcinogen: 4-NITROQUINOLINE-1-OXIDE, 56-57-5, Dose [Inhibitor]: 0, 0.05% IN DRINKING WATER AD LIBITUM (STUDY DURATION: 30 WK), Route [Inhibitor]: ORAL, Species: MOUSE, Strain/Sex: DDY/MALE, Target Tissue: Type of Lesion: LUNG: TUMOR, Dose [Carcinogen]: 10 MG/KG BW IN OLIVE OIL/CHOLESTEROL (20:1) ONCE, Promoter: GLYCEROL, 56-81-5","94%, 93%, 1%, not significant"
same,"tumour outcome (control, treated, inhibition, significance)","Carcinogen: 4-NITROQUINOLINE-1-OXIDE, 56-57-5, Dose [Inhibitor]: 0, 0.05% IN DRINKING WATER BEGINNING 5 WK POST CARCINOGEN TREATMENT AND CONTINUING FOR 25 WK (STUDY DURATION: 30 WK), Route [Inhibitor]: ORAL, Species: MOUSE, Strain/Sex: DDY/MALE, Target Tissue: Type of Lesion: LUNG: TUMORS, Dose [Carcinogen]: 10 MG/KG BW IN OLIVE OIL AND CHOLESTEROL (20:1) ONCE, Promoter: NONE USED","94%, 93%, 1%, not significant"
same,"tumour outcome (control, treated, inhibition, significance)","Carcinogen: 4-NITROQUINOLINE-1-OXIDE, 56-57-5, Dose [Inhibitor]: 0, 500 PPM IN DIET FOR 10 WK BEGINNING 1 WK PRIOR TO CARCINOGEN TREATMENT (STUDY DURATION: 32 WK), Route [Inhibitor]: ORAL, Species: RAT, Strain/Sex: F344/MALE, Target Tissue: Type of Lesion: TONGUE: CARCINOMA, Dose [Carcinogen]: 20 PPM IN DRINKING WATER FOR 8 WK, Promoter: NONE USED","13/24 (54%), 3/17 (18%), 67%, p<0.05"
same,"tumour outcome (control, treated, inhibition, significance)","Carcinogen: 4-NITROQUINOLINE-1-OXIDE, 56-57-5, Dose [Inhibitor]: 0, 500 PPM IN DIET FOR 10 WK BEGINNING 1 WK PRIOR TO CARCINOGEN TREATMENT (STUDY DURATION: 32 WK), Route [Inhibitor]: ORAL, Species: RAT, Strain/Sex: F344/MALE, Target Tissue: Type of Lesion: TONGUE: PAPILLOMA, Dose [Carcinogen]: 20 PPM IN DRINKING WATER FOR 8 WK, Promoter: NONE USED","4/24 (17%), 2/17 (12%), 29%, not significant"
same,"tumour outcome (control, treated, inhibition, significance)","Carcinogen: 4-NITROQUINOLINE-1-OXIDE, 56-57-5, Dose [Inhibitor]: 0, 500 PPM IN DIET FOR 22 WK BEGINNING 1 WK POST CARCINOGEN TREATMENT (STUDY DURATION: 32 WK), Route [Inhibitor]: ORAL, Species: RAT, Strain/Sex: F344/MALE, Target Tissue: Type of Lesion: TONGUE: CARCINOMA, Dose [Carcinogen]: 20 PPM IN DRINKING WATER FOR 8 WK, Promoter: NONE USED","13/24 (54%), 4/17 (24%), 56%, p<0.05"
same,"tumour outcome (control, treated, inhibition, significance)","Carcinogen: 4-NITROQUINOLINE-1-OXIDE, 56-57-5, Dose [Inhibitor]: 0, 500 PPM IN DIET FOR 22 WK BEGINNING 1 WK POST CARCINOGEN TREATMENT (STUDY DURATION: 32 WK), Route [Inhibitor]: ORAL, Species: RAT, Strain/Sex: F344/MALE, Target Tissue: Type of Lesion: TONGUE: PAPILLOMA, Dose [Carcinogen]: 20 PPM IN DRINKING WATER FOR 8 WK, Promoter: NONE USED","4/24 (17%), 2/17 (12%), 29%, not significant"
same,"tumour outcome (control, treated, inhibition, significance)","Carcinogen: 7,12-DIMETHYLBENZ[A]ANTHRACENE, 57-97-6, Dose [Inhibitor]: 0, 0.05% IN DRINKING WATER AD LIBITUM FOR 30 WK BEGINNING 1 WK POST CARCINOGEN DOSE (STUDY DURATION: 31 WK), Route [Inhibitor]: ORAL, Species: MOUSE, Strain/Sex: ICR/FEMALE, Target Tissue: Type of Lesion: SKIN: TUMOR, Dose [Carcinogen]: 100 UG ONCE, Promoter: 12-O-TETRADECANOYLPHORBOL-13-ACETATE, 16561-29-8","13/16 (81%), 8/16 (50%), 38%, not significant"
same,"tumour outcome (control, treated, inhibition, significance)","Carcinogen: 7,12-DIMETHYLBENZ[A]ANTHRACENE, 57-97-6, Dose [Inhibitor]: 0, 200 NMOL IN 200 µL ACETONE 2/WK BEGINNING 1 WK POST CARCINOGEN DOSE APPLIED SIMULTANEOUSLY WITH PROMOTER FOR 20 WK (S, Route [Inhibitor]: DERMAL, Species: MOUSE, Strain/Sex: ICR/?, Target Tissue: Type of Lesion: SKIN: PAPILLOMA, Dose [Carcinogen]: 100 UG ONCE, Promoter: 12-O-TETRADECANOYLPHORBOL-13-ACETATE, 16561-29-8","69%, 31%, 55%, not calculated"
same,"tumour outcome (control, treated, inhibition, significance)","Carcinogen: 7,12-DIMETHYLBENZ[A]ANTHRACENE, 57-97-6, Dose [Inhibitor]: 0, 200 NMOL IN 200 µL ACETONE 2/WK FOR 40 WK APPLIED SIMULTANEOUSLY WITH PROMOTER BEGINNING 1 WK POST CARCINOGEN DOSE (S, Route [Inhibitor]: DERMAL, Species: MOUSE, Strain/Sex: ICR/FEMALE, Target Tissue: Type of Lesion: SKIN: TUMOR, Dose [Carcinogen]: 100 UG ONCE, Promoter: 12-O-TETRADECANOYLPHORBOL-13-ACETATE, 16561-29-8","10/15 (67%), 8/15 (53%), 21%, not significant"
same,"tumour outcome (control, treated, inhibition, significance)","Carcinogen: 7,12-DIMETHYLBENZ[A]ANTHRACENE, 57-97-6, Dose [Inhibitor]: 0, 200 NMOL PALM CAROTENE FOR 22 WK BEGINNING 1 WK POST CARCINOGEN DOSE (STUDY DURATION: 40 WK), Route [Inhibitor]: DERMAL, Species: MOUSE, Strain/Sex: ICR/FEMALE, Target Tissue: Type of Lesion: SKIN: TUMOR, Dose [Carcinogen]: 100 UG ONCE, Promoter: GLYCOCHOLIC ACID, 475-31-0, MEZEREIN, 34807-41-5, Promoter: GLYCOCHOLIC ACID, 475-31-0, MEZEREIN, 34807-41-5","26%, 0%, 100%, not calculated"
same,"tumour outcome (control, treated, inhibition, significance)","Carcinogen: 7,12-DIMETHYLBENZ[A]ANTHRACENE, 57-97-6, Dose [Inhibitor]: 0, 250 MG SUSPENDED IN LIQUID PARAFFIN APPLIED TO EACH CHEEK POUCH 2/WK BEGINNING 15 D POST LAST CARCINOGEN DOSE AND CON, Route [Inhibitor]: DERMAL, Species: HAMSTER, Strain/Sex: SYRIAN/MALE, Target Tissue: Type of Lesion: CHEEK POUCH: TUMOR, Dose [Carcinogen]: 0.125 MG (0.25% LIQUID PARAFFIN SOLUTION) APPLIED TO EACH CHEEK POUCH FOR 1 MO, Promoter: NONE USED","10/15 (67%), 0/20 (0%), 100%, not calculated"
same,"tumour outcome (control, treated, inhibition, significance)","Carcinogen: 7,12-DIMETHYLBENZ[A]ANTHRACENE, 57-97-6, Dose [Inhibitor]: 0, 250 MG SUSPENDED IN LIQUID PARAFFIN APPLIED TO EACH CHEEK POUCH 2/WK BEGINNING 15 D POST LAST CARCINOGEN DOSE AND CON, Route [Inhibitor]: DERMAL, Species: HAMSTER, Strain/Sex: SYRIAN/MALE, Target Tissue: Type of Lesion: STOMACH: TUMOR, Dose [Carcinogen]: 0.125 MG (0.25% LIQUID PARAFFIN IN SOLUTION) APPLIED TO EACH CHEEK POUCH 2/WK FOR 1 MO, Promoter: NONE USED","15/15 (100%), 0/20 (0%), 100%, not calculated"
same,"tumour outcome (control, treated, inhibition, significance)","Carcinogen: 7,12-DIMETHYLBENZ[A]ANTHRACENE, 57-97-6, Dose [Inhibitor]: 0, 290 IU/KG IN 100 µL PEANUT OIL 5 D/WK BEGINNING 1 WK POST CARCINOGEN DOSE AND CONTINUING FOR DURATION OF STUDY (STUDY, Route [Inhibitor]: GAVAGE, Species: MOUSE, Strain/Sex: HRA/SKH/FEMALE, Target Tissue: Type of Lesion: SKIN: CARCINOMA, Dose [Carcinogen]: 10 NMOL IN 50 µL ACETONE ONCE","7/25 (28%), 7/38 (18%), 36%, not calculated"
same,outcome,"Carcinogen: 7,12-DIMETHYLBENZ[A]ANTHRACENE, 57-97-6, Dose [Inhibitor]: 0, 290 IU/KG IN 100 µL PEANUT OIL 5 D/WK BEGINNING 1 WK POST CARCINOGEN DOSE AND CONTINUING FOR DURATION OF STUDY (STUDY, Route [Inhibitor]: GAVAGE, Species: MOUSE, Strain/Sex: HRA/SKH/FEMALE, Target Tissue: Type of Lesion: SKIN: PAPILLOMA, Dose [Carcinogen]: 10 NMOL IN 50 µL ACETONE ONCE","97%, 77%, 21%, not calculated at 20 wk; 68%, 50%, 27%, not calculated at 40 wk"
